Reference: paper PMC8160438, “A Novel Heptapeptide, GPPGPAG Transfers to the Brain, and Ameliorates Memory Dysfunction and Dendritic Atrophy in Alzheimer’s Disease Model Mice” (Frontiers in Pharmacology, 2021)
No end group written: not given here.

How the values were obtained:
[1] = Plasma level after oral administration, LC-MS; type: in vivo; settings: 500 mg/animal, ddY mice, female, 8 weeks, 500 mg/mouse p.o. single dose, sampled at 10, 60, 180 min, n = 3, read-out: time of peak in the plasma (converted)
Protocol: Bioavailability and brain penetration of GPPGPAG was performed as previously described ([Yang et al., 2017]). GPPGPAG (500 mg) was dissolved in 750 μL of physiological saline. GPPGPAG or vehicle solution (physiological saline) was orally administered using an oral gavage to female ddY mice (8 weeks-old). The mice were euthanized at 10, 60, and 180 min after administration. Blood was collected and centrifuged at 10,000 g and 4°C for 10 min to yield plasma. Plasma aliquots (200 μL) were extracted with methanol, dried, sonicated, and resolubilized in 50% methanol (100 μL). The cerebral cortex was also collected after complete saline perfusion for removing blood. […]
FIGURE 6 Brain penetration of GPPGPAG after oral administration in mice GPPGPAG (500 mg/mouse, p. o.) or vehicle solution (physiological saline) was administered to mice (ddY, females, 8 weeks old, n = 3) as a single dose. […] (A) Total ion chromatogram (upper) and extracted ion current chromatogram (lower) of standard GPPGPAG (m/z = 552.2753) at 10 μg/ml for quantification of (B) and (C) data. […] In total ion chromatogram (upper) and extracted ion current chromatogram (lower) of m/z = 552.2753, no peaks were detected. […] In total ion chromatogram and extracted ion current chromatogram of m/z = 552.2753, peaks matching the retention time of GPPGPAG were detected. […]

[2] = Body weight during i.c.v. infusion; type: in vivo, mouse; settings: i.c.v. infusion for 28 days
Protocol: FIGURE 4 Effect of i.c.v. infusion of GPPGPAG on object recognition memory deficits in 5XFAD mice (A) GPPGPAG or vehicle solution (artificial cerebrospinal fluid; ACSF) was continuously administered to the lateral ventricle for 28 days in mice (male and female, 24–27 weeks old). The dose of GPPGPAG was set as 10 nM in CSF. An object recognition test was carried out with a 3 h interval time. The preferential indices of the training and test sessions are shown. *p < 0.05 vs. vehicle-treated 5XFAD mice, repeated measures two-way ANOVA with post hoc Bonferroni’s test. mean ± standard error. Wild-type (male, n = 5), vehicle-treated 5XFAD mice (male, n = 2; female, n = 2), GPPGPAG-infused 5XFAD mice (male, n = 2; female, n = 3). (B) Locomotion was evaluated by open field test. Distance moved and duration with immobility were shown. mean ± standard error (C) Changed values of body weight of mice during whole experimental period are shown.
P re fe re n tia l in d e x (% ) […]
Effect of i.c.v. infusion of GPPGPAG on object recognition memory deficits in 5XFAD mice
(A) GPPGPAG or vehicle solution (artificial cerebrospinal fluid; ACSF) was continuously administered to the lateral ventricle for 28 days in mice (females, 5 - 7 months old). The dose of GPPGPAG was set as 10 nM in ACSF. An object recognition test was carried out with a 24 h interval time. […] (B) Locomotion was evaluated by open field test. […]

Tmax [1]: 10 min
Substance: GPPGPAG [GPPGPAG]
body weight ([2]; 5XFAD mice, 10 nM in CSF): not significantly changed
body weight ([2]; female 5XFAD mice, 10 nM, separately performed experiment): no significant difference
